In patent US8987522B2, “Differentiation inducer to brown-like adipocyte of white adipocyte” (Uha Mikakuto Co., Ltd., priority 2012, dated 2015):

Experiments:
[1] = test system: 3T3-L1 cells (mouse-derived preadipocytes); assay: Expression of indicator genes (Cidea, Cox7a1, UCP1) of differentiation induction to brown-like adipocytes, real-time RT-PCR; assay type: cell-based; conditions: for differentiation induction action to brown-like adipocytes from white adipocytes: 3T3-L1, overall conclusion
Protocol: (§1) In order to evaluate the differentiation induction action to brown-like adipocytes of white adipocytes, the evaluation was carried out using 3T3-L1 cells (mouse-derived preadipocytes). The 3T3-L1 preadipocytes are usually differentiated to white adipocytes through a differentiation induction process to be matured. However, by the differentiation induction to brown-like adipocytes, an expression of Cidea gene, an increase in the expression amount of Cox7a1 gene expressed in mitochondria, an increase in the expression amount of cytochrome c oxidase protein specifically expressed in mitochondria, and an expression enhancement of UCP1 gene, which are hardly observed in white adipocytes, are observed. Then, the differentiation induction to brown-like adipocytes of white adipocytes was confirmed based on the expression amount of each gene of Cidea, Cox7a1, and UCP1.
For samples, two substances of resveratrol and UHA1028 were used. Since the action of the differentiation induction to brown-like adipocytes was not observed in sinapic acid, sinapic acid was not used as a comparison target. Each sample was dissolved in dimethylsulfoxide (DMSO, manufactured by Wako Pure Chemical Industries, Ltd.) with a concentration of 4 mM and 2 mM to be used for a test.
Culture was carried out using “Dulbecco's modified Eagle medium” (DMEM, Product name, manufactured by Sigma-Aldrich Corporation) containing 10% “Foetal Bovine Serum” (FBS, manufactured by Biological industries), 1% “Antibiotic-Antimycotic”, and GIBCO (manufactured by Life Technology Corporation). Adipocytes to be used for the test were prepared in accordance with a usual method.
The test was carried out as follows. 2 mL of 3T3-L1 cells were sowed with a concentration of 5×10^4 cells/mL in a 6 well dish for cell culture (manufactured by Japan Becton, Dickinson and Company), and then cultured under the conditions of 37° C. and 5% CO2 for 24 hours. 24 hours later, the DMEM culture medium was exchanged to a DMEM culture medium which was adjusted in such a manner that the final concentration of the UHA1028 was 10 μM or the final concentration of the resveratrol was 20 μM, culture was continued in such a manner that the cells were confluent to 100%, and then culture was further carried out for 48 hours. Next, the culture medium was exchanged to a culture medium in which 10 μL of each sample (Final concentration of 20 μM and 10 μM) was added to 2 mL DMEM for differentiation, to which 1% of insulin, 0.5% of dexamethasone, and 0.1% of isobutylmethylxanthine were added, attached to “AdipoInducer Reagent” (Product name, manufactured by Takara Bio, Inc.), and then differentiation induction was carried out under the conditions of 37° C. and 5% CO2 for 48 hours. After the differentiation induction for 48 hours, the culture medium was exchanged to 2 mL of DMEM for maintaining culture to which 1% of insulin was added, and then culture was further carried out for one week for maturing adipocytes. One to which 0.5% of only DMSO which is a solvent was added was used as a control.
After the end of the culture, the total amount RNA was extracted from the cells using an RNA extraction kit (Product name: NucleoSpin (Registered Trademark) RNA II, manufactured by Takara Bio, Inc.) and refined. […]

[2] = test system: 3T3-L1 cells (mouse-derived preadipocytes); assay: Expression of indicator protein CO1 (mitochondria marker), Western blot; assay type: cell-based
Protocol: as §1, with “an” for “an expression of Cidea gene, an increase in the expression amount of Cox7a1 gene expressed in mitochondria, an”, “mitochondria is” for “mitochondria, and an expression enhancement of UCP1 gene, which are hardly observed in white adipocytes, are”, “the CO1 protein.” for “each gene of Cidea, Cox7a1, and UCP1.”
Culture of cells was carried out by the same method as that of Example 2 using the same samples and cells as those in Example 2. […] After the extraction, the protein concentration was measured using a BCA protein assay kit (manufactured by Thermo Fisher Scientific K.K.). […]
After the electrophoresis, the proteins are transferred to PVDF membranes (manufactured by EMD Millipore) by a semidry blotting device “TRANS-BLOT S-D SEMI-DRY TRANSFER CELL” (Product name, manufactured by Bio-Rad Laboratories Inc.), and then blotting was carried out by Immunoblock (manufactured by DS Pharma Biomedical Co., Ltd.). […] The band strength of the detected band was calculated using an image analysis software “Image J”.

[3] = test system: human vascular endothelial cells; conditions: Japanese Patent Application No. 2011-118367; cited from earlier work
mature adipocytes [4] = conditions: Japanese Patent Application No. 2011-145331; cited from earlier work
mature adipocytes [5] = conditions: Japanese Patent Application No. 2011-186054; cited from earlier work
preadipocytes = conditions: Japanese Patent Application No. 2012-240364; cited from earlier work
[6] = 3T3-L1, UHA1028 10 μM, as compared with resveratrol 20 μM, FIG. 1

Structure (SMILES) | expression amount of the Cox7a1 (mitochondria marker gene) [1, 6] | expression amount of the UCP1 gene [1, 6] | gene expression amount of the Cidea (marker gene of the brown-like adipocytes) [1, 6] | differentiation induction action to brown-like adipocytes from white adipocytes [1] | mitochondria marker protein (CO1) expressed in mature adipocytes ([2]; 3T3-L1, Western blot band strength, as compared with DMSO and resveratrol, FIG. 2) | amount of mitochondria in the cells ([2]; 3T3-L1, results of Examples 2 and 3, as compared with resveratrol) | sirtuin expression promotion action [3] | adiponectin production promotion action (mature adipocytes [4]) | lipoprotein lipase promotion action (mature adipocytes [5]) | differential inhibition action to mature adipocytes of preadipocytes (preadipocytes)
COc1cc(C(C)c2c(O)cc(/C=C/c3ccc(O)cc3)cc2O)cc(OC)c1O (centres unmarked) [UHA1028] | significantly increased | significantly increased | significantly increased | notably induced | significantly large | significantly increased | sirtuin expression promotion action | adiponectin production promotion action | lipoprotein lipase promotion action | differential inhibition action
COc1cc(/C=C/C(=O)O)cc(OC)c1O [sinapic acid, reference compound] |  |  |  | not observed |  |  |  |  |  | 
